# Results from patent publication US20140256663A1, “Amphotericin Analogous Compounds and Pharmaceutical Compositions Containing Them” (CENTRO DE INVESTIGACION Y DE ESTUDIOS AVANZADOS DEL …, priority 2010, published 2014).
# Entries after “also recorded” stand apart in the source; their conditions may differ.
# Legend:
# [1] = Recarrier K. thesis; cited from earlier work
# [2] = system: Saccharomyces cerevisae FY833(SC) cells; assay: Viability of Saccharomyces cerevisae FY833 (SC) cells at various concentrations; assay type: cell-based; conditions: FIG. 1, various concentrations; listed as amide 1
# Experimental: All derivatives were tested for antibiotic activity in yeast cultures of S. cerevisiae.
# [3] = system: human renal cells 293Q (ATCC CLR-1573); assay: MTT cytotoxicity on human renal cells 293Q; conditions: human renal cells 293Q, 24 h
# Experimental: For cytotoxicity studies human kidney cells (ATCC No. CRL-1573) were used. The cells were cultured with Minimum Essential Medium (MEM) (GIBCO BRL), supplemented with 10% fetal bovine serum (FBS) (GIBCO BRL), 2 mM 1-glutamine (GIBCO BRL), 1.5 gL Na2HCO3 (Sigma Chemical Co), 0.1 mM nonessential amino acids (Sigma Chemical Co), and 1 mM sodium pyruvate (In vitro, S.A.). The technique of bromide of 3(4,5-dimethylthiazol-2-yl)-2,5-diphenyl tetrazolium (MTT) (Sigma Chemical Co) was applied; a technique which is based on the conversion of dye to an insoluble precipitate called formazan. This test is used as an indicator of mitochondrial function in living cells that measures the metabolic capacity in cells and serves as an indicator of cytotoxicity. […] (Mosman […], Immunol Methods, 65: 55-63). The cytoxicity test consisted of planting 10,000 cells per well in 96-well plates (Corning Incorporated Costar) in MEM and incubate them (Nuaire us autoflow CO2 water-jacketed incubator) during 24 h at 37° C. and 5% CO2. […] After incubation, cells were treated and incubated anew for 24 h. After this time the medium was aspirated carefully and replaced with 200 μL of fresh medium, and 50 μL of MTT was added for a total volume of 250 μl. They were then incubated for 4 hours in the above conditions. After that time the medium with MTT was carefully removed and 200 μL of DMSO and 25 μL of Sorensen buffer (0.1 M glycine+0.1 M NaCl at pH 10.5) were added to each well. The plate was then mixed until the formazan crystals dissolved, and it was finally read in a plate reader (Microplate Limaning System Ultramark, Biorad) at a wavelength of 550 nm.
# For the tests, we used human renal ephythelial cells (293Q) (ATCC Catalog No. CRL-1573). The cells were cultured with Minimum Essential Medium (MEM) (GIBCO BRL) supplemented with 10% fetal bovine serum (FBS) (GIBCO BRL), 2 mM L-glutamine (GIBCO BRL), 1.5 g/L Na2HCO3 (Sigma Chemical Co), 0.1 mM nonessential amino acids (Sigma Chemical Co), and 1 mM sodium pyruvate (In vitro, S.A.). For cytoxicity tests, we applied the technique of bromide 3(4,5-dimethylthiazol-2-yl)-2,5-diphenyl tetrazolium (MTT) (Sigma Chemical Co), which is based on the conversion of the dye to an insoluble precipitate called formazan. This test is used as an indicator of mitochondrial function in living cells which measures the metabolic capacity in cells and serves as an indicator of cytotoxicity. (Wang, H. Z., Chang, C. H., Lin, C. P., Tsai, M. C). Using MTT viability assay to test the cytotoxicity of antibiotics and steroid to cultured porcine corneal endothelial cells. J. Ocul. Pharmacol. Ther. 1996; 12: 35-43). For the essay 10,000 cells were seeded per well in 96-well plates (Corning Incorporated Costar) in the medium already indicated and incubated for 24 h at 37° C. and 5% CO2. […] After incubation, cells were treated and incubated again for 24 h. The medium was carefully aspirated and replaced with 200 μl fresh medium, adding 50 μl MTT solution for a total volume of 250 μl. They were then incubated for 4 hours in the above conditions. The medium was carefully removed with MTT and 200 μl DMSO and 25 μl Sorense buffer (0.1 M glycine+0.1 M NaCl at pH 10.5) was added to each well. Then the plate was mixed until the formazan crystals dissolved; it was finally read in a reader plate (Microplate Limaning System Ultramark, Biorad) at a wavelength of 550 nm.
# [4] = Unit channel studies in chicken egg lecithin bilayers with cholesterol
# Experimental: The activity is determined by the presence of the different channels formed by polyenes in the lipid bilayer (Cotero, et al., supra; Venegas, et al., supra). […] These values were determined by the technique of unit channel delineated above.
# Unit channel studies were performed according to procedures described earlier (Cotero, et al., supra, Venegas, et al., supra). Required liposomal suspensions were prepared using lecithin with cholesterol or ergosterol. These suspensions were placed in an ultrasonic bath for 15 minutes to produce unilamellar vesicles. Subsequently, the suspension was placed in a 100 μl eppendorf and a lipid bilayer was formed on the tip of a micro-electrode. The unit channels of amphotericin and of the invented compounds were incorporated to this bilayer. The unit channel current of the various compounds was recorded with an electrometer, and then these records were analyzed by determining the activity of the compounds and the characteristics of the channels formed.
# The activity is determined by the presence of the various channels formed by polyenes in the lipid bilayer (Cotero, et al., supra, Venegas, et al., supra). […] This conductance is the effect of all the channels present and was determined by the unit channel technique earlier described.
# [5] = system: Candida albicans ATCC 752; assay: Antifungal activity in vitro by flow cytometry, Candida albicans ATCC 752; assay type: cell-based; conditions: ATCC752, 24 h at 37° C., read-out: CF50 Candida albicans ATCC 752
# Experimental: (§1) The antifungal activity of the polyene macrolide derivate of the present invention was determined by flow cytometry method earlier described (Pinto et al., J. Medical Microbiology, 2009; 58, 1454-1462; Pina-Vaz and Rodriguez, Methods Mol. Biol. 2010; 638:281-289). For the test two strains of Candida albicans (ATCC 10231 and 752) and Candida kruzei were used. A cellular suspension of 1×10^6 UFC/mL was used, which has sown in 96-well plates. […] As controls were used: untreated yeasts (control of living cells), yeasts exposed to UV radiation (arrest, inhibition of proliferation), and yeasts exposed at temperature of 100° C. (dead yeasts). Cells were collected by centrifugation at 10,000×g for 10 min, they were washed once in phosphate buffer. […] of propidium iodide 0.1 mg/mL were added to the cell suspension. It was incubated during 30 minutes at room temperature and protected from light. Finally, the samples were analyzed by flow cytometry (Becton-Dickinson Facsc Calibur, laser argon 480 nm). The intrinsic parameters and fluorescence in the FL2 channel (yellow/orange fluorescence) for FUN and channel FL3 (red fluorescence, filter 630 nm) for propidium iodide were acquired and registered on a logarithmic scale for a minimum of 7500 events per sample. For data analysis, the quadrants were adjusted in a plot of data lines of fluorescence intensity of samples. […] These quadrants were used to quantify the percentile of cells showing altered fluorescence compared to drug-free controls.
# [6] = system: Candida albicans ATCC 10231; assay: Antifungal activity in vitro by flow cytometry, Candida albicans ATCC 10231; assay type: cell-based; conditions: ATCC10231, 24 h at 37° C., read-out: CF50 Candida albicans ATCC 10231
# Experimental: as §1
# Candida kruzei = assay: Antifungal activity in vitro by flow cytometry, Candida kruzei; assay type: cell-based; conditions: 24 h at 37° C., read-out: CF50 Candida kruzei
# Experimental: as §1
# human erythrocytes = assay: Hemolytic assay on human erythrocytes; assay type: cell-based; conditions: 1 hour
# Experimental: The hemotoxicity of the polyene macrolide derivative of the present invention was determined by measuring the toxicity to human erythrocytes (values HE50) using a method established by Cybulska, et al. (Cybulska, B., Borowski, E. and Gary-Bobo, M. Relationship between ionophoric and hemolytic activities of perimycin A and vacidin A, two polyene macrolide antifungal antibiotics. Biochem Pharmacol. 1989; 38(11): 1755-1762). For determining the haematoxicity 2 mL blood were obtained and placed in a tube with EDTA. The number of erythrocytes was counted in a Neubauer chamber, and 1×10^7 cells/mL were placed in test tubes. The erythrocytes were resuspended in 450 μL of KCl 150 mM+Tris 3 mM buffer. The erythrocytes were treated with concentrations of 0.01, 0.1, 1, 10 y 100 μM and incubated in a water bath for 1 hour. They were then centrifuged at 1500 rpm for 15 seconds; 150 μL were taken from the supernatant and placed in 96-well plates; the optical density of each group was measured using a plate reader at a wavelength of 550 nm. We included one tube with the drug solvent (DMSO 1%) as internal control. We also included one tube only with erythrocytes and 500 μl of buffer KCl 150 mM+Tris 3 mM, which we consider as a negative control group and a tube with 500 μl of red cells and 35 mM NaCl (positive control).
# [7] = 200 μM compound, 30 mol % cholesterol, 27° C.
SMILES,selectivity ergosterol versus cholesterol POPC membranes [1],inhibitory capacity / potency on SC cells compared to AmB [2],DT50 CitE50 [3],"Opening probability, channel type I [4, 7]","Opening probability, channel type II [4, 7]","Opening probability, channel type III [4, 7]","Opening probability, channel type IV [4, 7]","Opening probability, channel type V [4, 7]","Opening probability, channel type VI [4, 7]","activity of transmembranal channels in the cholesterol membrane ([4]; in words, compared to AmB)",IC50 [5],IC50 [6],IC50 (Candida kruzei),HE50 (Hemolysis 50) (human erythrocytes)
C[C@@H]1[C@H](O)[C@@H](C)/C=C/C=C/CC/C=C/C=C/C=C/C=C/C(O[C@H]2O[C@H](C)[C@@H](O)[C@H](N)[C@@H]2O)CC2O[C@](O)(CC(O)C(O)CCC(O)CC(O)CC(O)CC(=O)O[C@H]1C)CC(O)C2C(=O)O (some centres unmarked) [nystatin],much higher selectivity,,,,,,,,,,,,,
"CC1OC(O[C@H]2/C=C/C=C/C=C/C=C/C=C/C=C/C=C/C(C)[C@@H](O)C(C)C(C)OC(=O)C[C@H](O)C[C@H](O)CC[C@@H](O)[C@H](O)C[C@H](O)C[C@]3(O)CC(O)[C@@H](C(=O)NCc4ccccc4)C(C2)O3)C(O)C(N)C1O (some centres unmarked) [A-1, N-benzylamide of AmB]",,the most similar; also recorded: the highest power of the derivatives,100 µM,2%,1%,<1%,<1%,<1%,<1%,low activity of transmembranal channels,> 100 µM,> 100 µM,> 100 µM,52 µM
